# Laboratory results reported in patent publication US7312330B2, “Bicycloheteroarylamine compounds as ion channel ligands and uses thereof” (Renovis, Inc., priority 2003, dated 2007).
# Target: hVR1 (Homo sapiens, UniProt Q8NER1)
# Assay: Calcium imaging assay (Fura2) of VR1 antagonists, proton stimulation
# Type: cell-based
# Details: HEK 293 cells expressing hVR1; for % Inhibition @ 1 μM: calcium ion influx induced by proton stimulation (pH 5.7); for IC50: calcium ion influx induced by proton stimulation
# Description: VR1 protein is a heat-gated cation channel that exchanges about 10 calcium ions for every sodium ion resulting in neuronal membrane depolarization and elevated intracellular calcium ion levels. Therefore the functional activity of compounds at the VR1 receptor may be determined by measuring changes in intracellular calcium levels in 293 cells expressing capsaicin-insensitive VR1 receptor variants. A dual wavelength ratiometric dye, Fura2, was used as an indicator of relative levels of calcium ions in a 96 well format using a bench top scanning fluorometer with integrated fluidics and temperature control (Flex Station, Molecular Devices).
# A dual wavelength ratiometric dye, Fura2, was used as an indicator of relative levels of [Ca2+] in a 96 well format using a bench top scanning fluorometer with integrated fluidics and temperature control (Flex Station, Molecular Devices).
# HEK 293 cells expressing hVR1 were grown on PDL coated 96-well black-walled plates, in the presence of a DMEM medium containing 5% Penstrep, 5% Glutamax, 200 ug/mL Hygromycin, 5 μg/mL Blasticide and 10% heat inactivated FBS. Prior to assay, the cells were loaded with 5 μg/mL Fura2 in normal saline solution at 37° C. for 40 minutes. Cells were then washed with normal saline to remove the dye.
# The assay consists of two stages; a pre-treatment phase followed by a treatment phase. In the pretreatment phase, 50 μl of a compound solution was added to the cells. Immediately following, 50 μl of the test compound in the presence of agonist (a saline solution plus 10 mM citric acid bufferd to pH 5.7 with HCl) was added. Fura2 was excited at […] to indicate relative calcium concentration. Changes in wavelength measurements were made throughout the course of the experiment in 4 second intervals over a period of 3 minutes. The fluorescence ratio from the excitations at […] was recorded for analysis. Responses were measured as peak fluorescence ratio after compound-agonist addition minus baseline fluorescence ratio prior to treatment and were calculated for each concentration tested using the SoftMaxPro software. Data was expressed as percentage inhibition calculated as follows: […]
# A dose response curve was then determined, from which the ID50 of each compound was calculated.
# Chain of hVR1 (Q8NER1 whole entry): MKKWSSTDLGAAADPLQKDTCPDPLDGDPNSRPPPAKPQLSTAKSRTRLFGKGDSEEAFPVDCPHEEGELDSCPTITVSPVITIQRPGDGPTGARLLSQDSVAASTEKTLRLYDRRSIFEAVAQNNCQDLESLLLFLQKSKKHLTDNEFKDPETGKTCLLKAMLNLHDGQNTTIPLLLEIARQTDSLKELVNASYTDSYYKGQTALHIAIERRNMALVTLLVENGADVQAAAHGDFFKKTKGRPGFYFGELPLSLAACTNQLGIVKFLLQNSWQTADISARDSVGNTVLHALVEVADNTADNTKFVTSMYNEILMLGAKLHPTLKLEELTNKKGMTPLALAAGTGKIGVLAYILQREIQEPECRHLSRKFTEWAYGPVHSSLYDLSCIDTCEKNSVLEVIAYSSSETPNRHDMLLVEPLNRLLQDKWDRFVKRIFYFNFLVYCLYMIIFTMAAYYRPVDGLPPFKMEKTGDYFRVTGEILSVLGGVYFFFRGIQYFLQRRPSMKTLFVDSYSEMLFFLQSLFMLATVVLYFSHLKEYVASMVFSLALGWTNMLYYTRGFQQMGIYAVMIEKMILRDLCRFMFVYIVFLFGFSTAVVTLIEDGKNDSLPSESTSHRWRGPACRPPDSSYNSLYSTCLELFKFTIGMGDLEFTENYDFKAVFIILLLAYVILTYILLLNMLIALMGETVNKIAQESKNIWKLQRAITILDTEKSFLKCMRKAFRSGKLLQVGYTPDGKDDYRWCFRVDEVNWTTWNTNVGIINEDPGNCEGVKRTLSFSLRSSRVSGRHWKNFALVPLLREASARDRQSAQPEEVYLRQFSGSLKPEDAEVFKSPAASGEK
Compound,IC50 [µM],% Inhibition @ 1 μM
"CC1(C)C(=O)NC(=O)c2cc(Nc3ncnc4c3CCN(c3ncccc3Cl)C4)ccc21 [Example 58, 7-(7-(3-Chloropyridin-2-yl)-5,6,7,8-tetrahydropyrido[3,4-d]pyrimidin-4-ylamino)-4,4-dimethylisoquinoline-1,3(2H,4H)-dione]",> 1,–
"CC1(C)CCNc2cc(Nc3ncnc4c3CCN(c3ncccc3Cl)C4)ccc21 [Example 59, 7-(3-chloropyridin-2-yl)-5,6,7,8-tetrahydro-N-(1,2,3,4-tetrahydro-4,4-dimethylquinolin-7-yl)pyrido[3,4-d]pyrimidin-4-amine]",0.101 to 0.5,–
"CN1CCC(C)(C)c2ccc(Nc3ncnc4c3CCN(c3ncccc3Cl)C4)cc21 [Example 60, 7-(3-Chloropyridin-2-yl)-5,6,7,8-tetrahydro-N-(1,2,3,4-tetrahydro-1,4,4-trimethylquinolin-7-yl)pyrido[3,4-d]pyrimidin-4-amine]",< 0.1,–
CC(=O)N1Cc2cc(Nc3ncnc4c3CCN(c3ncccc3Cl)C4)ccc2C(C)(C)C1 [Example 61],> 1,–
"CC1(C)CNCc2cc(Nc3ncnc4c3CCN(c3ncccc3Cl)C4)ccc21 [Example 62, 7-(3-chloropyridin-2-yl)-5,6,7,8-tetrahydro-N-(1,2,3,4-tetrahydro-4,4-dimethylisoquinolin-7-yl)pyrido[3,4-d]pyrimidin-4-amine]",> 1,–
"CN1CCOc2cc(Nc3ncnc4c3CCN(c3ncccc3Cl)C4)ccc21 [Example 65, 7-(3-Chloropyridin-2-yl)-5,6,7,8-tetrahydro-N-(3,4-dihydro-4-methyl-2H-benzo[b][1,4]oxazin-7-yl)pyrido[3,4-d]pyrimidin-4-amine]",0.101 to 0.5,+++ (compound exhibited 51-75% inhibition of calcium ion influx induced by proton stimulation)
"COC(=O)COc1nc2c(c(Nc3ccc(C(F)(F)F)cc3)n1)CCN(c1ncccc1Cl)C2 [Example 66, Methyl 2-(4-(4-(trifluoromethyl)phenylamino)-7-(3-chloropyridin-2-yl)-5,6,7,8-tetrahydropyrido[3,4-d]pyrimidin-2-yloxy)acetate]",< 0.1,++++ (compound exhibited 76% or greater inhibition of calcium ion influx induced by proton stimulation)
"CC1(C)C(=O)Nc2cc(Nc3ncnc4c3CCN(c3ncccc3Cl)C4)ccc21 [Example 67, 6-(7-(3-Chloropyridin-2-yl)-5,6,7,8-tetrahydropyrido[3,4-d]pyrimidin-4-ylamino)-3,3-dimethylindolin-2-one]",> 1,–
"CC(=O)N1CC(C)(C)c2ccc(Nc3ncnc4c3CCN(c3ncccc3Cl)C4)cc21 [Example 68, 1-(6-(7-(3-Chloropyridin-2-yl)-5,6,7,8-tetrahydropyrido[3,4-d]pyrimidin-4-ylamino)-3,3-dimethylindolin-1-yl)ethanone]",0.501 to 1,+++ (compound exhibited 51-75% inhibition of calcium ion influx induced by proton stimulation)
"CC1(C)CNc2cc(Nc3ncnc4c3CCN(c3ncccc3Cl)C4)ccc21 [Example 69, 7-(3-Chloropyridin-2-yl)-5,6,7,8-tetrahydro-N-(3,3-dimethylindolin-6-yl)pyrido[3,4-d]pyrimidin-4-amine]",0.101 to 0.5,++++ (compound exhibited 76% or greater inhibition of calcium ion influx induced by proton stimulation)
"CN1CC(C)(C)c2ccc(Nc3ncnc4c3CCN(c3ncccc3Cl)C4)cc21 [Example 70, 7-(3-Chloropyridin-2-yl)-5,6,7,8-tetrahydro-N-(1,3,3-trimethylindolin-6-yl)pyrido[3,4-d]pyrimidin-4-amine]",< 0.1,++++ (compound exhibited 76% or greater inhibition of calcium ion influx induced by proton stimulation)
"FC(F)(F)c1ccnc(N2CCc3c(ncnc3Nc3ccc4c(c3)OCCO4)C2)c1 [Example 71, 7-(4-(Trifluoromethyl)pyridin-2-yl)-5,6,7,8-tetrahydro-N-(2,3-dihydrobenzo[b][1,4]dioxin-7-yl)pyrido[3,4-d]pyrimidin-4-amine]",> 1,+ (compound exhibited 0-25% inhibition of calcium ion influx induced by proton stimulation)
"Clc1cccnc1N1CCc2c(ncnc2Nc2ccc3c(c2)OCCO3)C1 [Example 74, 7-(3-Chloropyridin-2-yl)-5,6,7,8-tetrahydro-N-(2,3-dihydrobenzo[b][1,4]dioxin-6-yl)pyrido[3,4-d]pyrimidin-4-amine]",> 1,++ (compound exhibited 26-50% inhibition of calcium ion influx induced by proton stimulation)
"O=C(O)COc1nc2c(c(Nc3ccc(C(F)(F)F)cc3)n1)CCN(c1ncccc1Cl)C2 [Example 75, 2-(4-(4-(Trifluoromethyl)phenylamino)-7-(3-chloropyridin-2-yl)-5,6,7,8-tetrahydropyrido[3,4-d]pyrimidin-2-yloxy)acetic acid]",> 1,+ (compound exhibited 0-25% inhibition of calcium ion influx induced by proton stimulation)

# The next lines start with results.
IC50 [µM],Compound,% Inhibition @ 1 μM
> 1,"Oc1nc2c(c(Nc3ccc(C(F)(F)F)cc3)n1)CCN(c1ncccc1Cl)C2 [Example 57, 4-(4-(Trifluoromethyl)phenylamino)-7-(3-chloropyridin-2-yl)-5,6,7,8-tetrahydropyrido[3,4-d]pyrimidin-2-ol]",+ (compound exhibited 0-25% inhibition of calcium ion influx induced by proton stimulation)
0.101 to 0.5,"CSc1nc2c(c(Nc3ccc(C(F)(F)F)cc3)n1)CCN(c1ncccc1S(C)(=O)=O)C2 [Example 63, N-(4-(Trifluoromethyl)phenyl)-5,6,7,8-tetrahydro-7-(3-(methylsulfonyl)pyridin-2-yl)-2-(methylthio)pyrido[3,4-d]pyrimidin-4-amine]",+++ (compound exhibited 51-75% inhibition of calcium ion influx induced by proton stimulation)
> 1,"COc1cccc(Nc2ncnc3c2CCN(c2cc(C(F)(F)F)ccn2)C3)c1 [Example 72, 7-(4-(Trifluoromethyl)pyridin-2-yl)-5,6,7,8-tetrahydro-N-(3-methoxyphenyl)pyrido[3,4-d]pyrimidin-4-amine]",+ (compound exhibited 0-25% inhibition of calcium ion influx induced by proton stimulation)
> 1,"COc1cccc(Nc2ncnc3c2CCN(c2ccc(C(F)(F)F)cn2)C3)c1 [Example 73, 7-(5-(Trifluoromethyl)pyridin-2-yl)-5,6,7,8-tetrahydro-N-(3-methoxyphenyl)pyrido[3,4-d]pyrimidin-4-amine]",+ (compound exhibited 0-25% inhibition of calcium ion influx induced by proton stimulation)
< 0.1,"O=S(=O)(c1ccc(Nc2ncnc3c2CCN(c2ncccc2C(F)(F)F)C3)cc1)C(F)(F)F [Example 76, 7-(3-(trifluoromethyl)pyridin-2-yl)-5,6,7,8-tetrahydro-N-(4-(trifluoromethylsulfonyl)-phenyl)pyrido[3,4-d]pyrimidin-4-amine]",++++ (compound exhibited 76% or greater inhibition of calcium ion influx induced by proton stimulation)
0.101 to 0.5,"FC(F)Oc1ccc(Nc2ncnc3c2CCN(c2ncccc2C(F)(F)F)C3)cc1 [Example 77, N-(4-(difluoromethoxy)phenyl)-7-(3-(trifluoromethyl)pyridin-2-yl)-5,6,7,8-tetrahydropyrido[3,4-d]pyrimidin-4-amine]",++++ (compound exhibited 76% or greater inhibition of calcium ion influx induced by proton stimulation)
